According to patent US5922697A, “Compounds, compositions and methods for inhibiting the binding of proteins containing an SH2 domain to cognate phosphorylated proteins” (Warner-Lambert Company, priority 1998, dated 1999):
Like-named read-outs stand apart in the source and are kept apart here.

What was measured:
[1] = target: T1, Src SH2 (Homo sapiens, UniProt P12931); assay: Inhibition of 125I-phosphopeptide binding to immobilized Src SH2; conditions: competitive 125I-phosphopeptide displacement, GST-Src SH2 fusion protein, pH 7.5, room temperature, 20 minutes
T1 construct: glutathione-S-transferase(GST)-Src SH2 fusion protein
Method: The binding affinities of compounds of the present invention to Src SH2 was determined using a competitive radiolabeled phosphopeptide displacement assay.
Binding was performed at room temperature for 20 minutes while continuously inverting the plate. […] Results are expressed as IC50 values in Table 1 below.

[2] = target: T2, Abl SH2 (Homo sapiens, UniProt P00519); assay: Inhibition of 125I-phosphopeptide binding to immobilized Abl SH2
T2 construct: glutathione-S-transferase(GST)-Abl SH2 fusion protein
T2 sequence (P00519 127-217 limits assumed): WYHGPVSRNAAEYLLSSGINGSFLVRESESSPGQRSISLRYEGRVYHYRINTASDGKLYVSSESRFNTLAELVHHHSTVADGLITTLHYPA
Method: The binding affinities of compounds of the present invention to Abl SH2 was determined using a competitive radiolabeled phosphopeptide displacement assay. […] Binding was performed at room temperature for 20 minutes while continuously inverting the plate.

[3] = IC50, Abl SH2 Binding, competitive 125I-phosphopeptide displacement, GST-Abl SH2 fusion protein, pH 7.5, room temperature, 20 minutes
[4] = read-out: IC50, SRC SH2 Binding
[5] = competitive 125I-phosphopeptide displacement, GST-Abl SH2 fusion protein, pH 7.5, room temperature, 20 minutes; read-out: IC50, Abl SH2 Binding

T1 sequence (P12931 151-248 limits assumed): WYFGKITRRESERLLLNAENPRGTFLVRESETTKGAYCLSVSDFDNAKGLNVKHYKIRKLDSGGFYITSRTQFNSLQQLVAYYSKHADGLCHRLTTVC

CC(=O)N[C@@H](Cc1ccc(OP(=O)(O)O)cc1)C(=O)NC(C)c1ccc(OCC2CCCCC2)c(CC(N)=O)c1 (mixture of isomers) [Example 65, (S)-Phosphoric acid mono-(4-{2-acetylamino-2-[(RS)-1-(3-carbamoylmethyl-4-cyclohexylmethoxy-phenyl)-ethylcarbamoyl]-ethyl}-phenyl) ester]
IC50 ([1]; IC50, SRC SH2 Binding): 9.2 µM
IC50 [2, 3]: 24 µM

CC(=O)N[C@@H](Cc1ccc(OP(=O)(O)O)cc1)C(=O)NCc1ccc(OC(C)CC2CCCCC2)c(C(N)=O)c1 (mixture of isomers) [Example 66, Phosphoric acid mono-(4-{(S)-2-acetylamino-2-[3-carbamoyl-4-(2-cyclohexyl-(RS)-1-methyl-ethoxy)-benzylcarbamoyl]-ethyl}-phenyl) ester]
IC50 ([1]; IC50, SRC SH2 Binding): 3.8 µM
IC50 [2, 3]: 11 µM

CC(=O)N[C@@H](Cc1ccc(OP(=O)(O)O)cc1)C(=O)NC(Cc1ccccc1)c1ccc(OCC2CCCCC2)c(C(N)=O)c1 (mixture of isomers) [Example 67, Phosphoric acid mono-(4{(S)-2-acetylamino-2-[(RS)-1-(3-carbamoyl-4-cyclohexylmethoxy-phenyl)-2-phenyl-ethylcarbamoyl]-ethyl}-phenyl) ester]
IC50 ([1]; IC50, SRC SH2 Binding): 1 µM
IC50 [2, 3]: 6 µM

CC(=O)N[C@@H](Cc1ccc(OP(=O)(O)O)cc1)C(=O)NC(C)c1ccc(OCc2cc(C)cc(C)c2)c(C(N)=O)c1 (mixture of isomers) [Example 68, Phosphoric acid mono-[4-((S)-2-acetylamino-2-{(RS)-1-[3-carbamoyl-4-(3,5-dimethyl-benzyloxy)-phenyl]-ethylcarbamoyl}-ethyl)-phenyl] ester]
IC50 ([1]; IC50, SRC SH2 Binding): 1.1 µM
IC50 [2, 3]: 5.7 µM

CCCC(NC(=O)[C@H](Cc1ccc(OP(=O)(O)O)cc1)NC(C)=O)c1ccc(OCC2CCCCC2)c(C(N)=O)c1 (mixture of isomers) [Example 69, Phosphoric acid mono-(4-{(S)-2-acetylamino-2-[(RS)-1-(3-carbamoyl-4-cyclohexylmethoxy-phenyl)-butylcarbamoyl]-ethyl}-phenyl) ester]
IC50 ([1]; IC50, SRC SH2 Binding): 2.1 µM
IC50 [2, 3]: 7.4 µM

CC(=O)N[C@@H](Cc1ccc(P(=O)(O)O)cc1)C(=O)NC(C)c1ccc(OCC2CCCCC2)c(C(N)=O)c1 (mixture of isomers) [Example 73, (4-{(S)-2-Acetylamino-2-[(RS)-1-(3-carbamoyl-4-cyclohexylmethoxy-phenyl)-ethylcarbamoyl]-ethyl}-phenyl)-phosphonic acid]
IC50 [1, 4]: 8.6 µM
IC50 [2, 5]: 26 µM

CC(NC(=O)Nc1cccc2cc(OP(=O)(O)O)ccc12)c1ccc(OCC2CCCCC2)c(C(N)=O)c1 (racemic) [Example 75, (+/-)-Phosphoric acid mono-(5-{3-[1-(3-carbamoyl-4-cyclohexylmethoxy-phenyl)-ethyl]-ureido}-naphthalen-2-yl) ester]
IC50 ([1]; IC50, SRC SH2 Binding): 7.2 µM
IC50 [2, 3]: ~60 µM

CC(=O)N[C@@H](Cc1ccc(C(F)(F)P(=O)(O)O)cc1)C(=O)NC(C)c1ccc(OCC2CCCCC2)c(C(N)=O)c1 (single isomer, unassigned) [Example 63b, [S-(R*,R*)]- or [S-(R*,S*)]-[(4-{2-Acetylamino-2-[1-(3-carbamoyl-4-cyclohexylmethoxy-phenyl)-ethylcarbamoyl]-ethyl}-phenyl)-difluoro-methyl]-phosphonic acid]
IC50 [1, 4]: 29 µM
IC50 [2, 5]: 59 µM

CC(=O)N[C@@H](Cc1ccc(OP(=O)(O)O)cc1)C(=O)NC(C)c1ccc(OC(C)CC2CCCCC2)c(C(N)=O)c1 (single isomer, unassigned) [Example 64a, Phosphoric acid mono-[4-(2-acetylamino-2-{1-[3-carbamoyl-4-(2-cyclohexyl-1-methyl-ethoxy)-phenyl]-ethylcarbamoyl]-ethyl)-phenyl] ester]
IC50 ([1]; IC50, SRC SH2 Binding): 0.6 µM
IC50 [2, 3]: 2.4 µM

CC(=O)N[C@@H](Cc1ccc(OP(=O)(O)O)cc1)C(=O)NC(C)c1ccc(OC(C)CC2CCCCC2)c(C(N)=O)c1 (single isomer, unassigned) [Example 64b, Phosphoric acid mono-[4-(2-acetylamino-2-{1-[3-carbamoyl-4-(2-cyclohexyl-1-methyl-ethoxy)-phenyl]-ethylcarbamoyl}-ethyl)-phenyl] ester]
IC50 ([1]; IC50, SRC SH2 Binding): 11 µM
IC50 [2, 3]: 14 µM

CC(=O)N[C@@H](Cc1ccc(OP(=O)(O)O)cc1)C(=O)N[C@@H](CCC(=O)O)C(=O)N1CCC[C@@H]1CCc1ccccc1 [Example 11, 4-[(S)-2-Acetylamino-3-(4-phosphonooxy-phenyl)-(S)-propionylamino]-5-oxo-5-((S)-2-phenethyl-pyrrolidin-1-yl)-pentanoic acid]
IC50 [1, 4]: 2.1 µM
IC50 [2, 5]: 17 µM

CC(=O)N[C@@H](Cc1ccc(OP(=O)(O)O)cc1)C(=O)N[C@@H](CCC(=O)O)C(=O)N1CCC[C@@H]1CCC1CCCCC1 [Example 12, 4-[(S)-2-Acetylamino-3-(4-phosphonooxy-phenyl)-(S)-propionylamino]-5-[2-((S)-2-cyclohexyl-ethyl)-pyrrolidin-1-yl]-5-oxo-pentanoic acid]
IC50 [1, 4]: 0.7 µM
IC50 [2, 5]: 2.5 µM

CC(=O)N[C@@H](Cc1ccc(OP(=O)(O)O)cc1)C(=O)N[C@@H](CCC(=O)O)C(=O)NCCCc1cccc(OCC(N)=O)c1 [Example 24, [S-(R*,R*)]-4-[2-Acetylamino-3-(4-phosphonooxy-phenyl)-propionylamino]-4-[3-(3-carbamoylmethoxy-phenyl)-propylcarbamoyl]-butyric acid]
IC50 ([1]; IC50, SRC SH2 Binding): 7.2 µM
IC50 [2, 3]: 36 µM

CN(CCCC1CCCCC1)C(=O)[C@H](CCC(=O)O)NC(=O)N(CC(=O)O)Cc1ccc(OP(=O)(O)O)cc1 [Example 35, (S)-4-[3-carboxymethyl-3-(4-phosphonooxy-benzyl)-ureido]-4-[(3-cyclohexyl-propyl)-methyl-carbamoyl]-butyric acid]
IC50 ([2]; read-out: IC50, Abl SH2 Binding; competitive 125I-phosphopeptide displacement, GST-Abl SH2 fusion protein, pH 7.5, room temperature, 20 minutes): > 100 µM

NC(=O)c1cc(CNC(=O)c2ccc(OP(=O)(O)O)cc2)ccc1OCC1CCCCC1 [Example 44, Phosphoric acid mono-[4-(3-carbamoyl-4-cyclohexyl-methoxy-benzylcarbamoyl)-phenyl] ester]
IC50 [1, 4]: 6.5 µM

NC(=O)c1cc(CNC(=O)c2ccc(C(F)(F)P(=O)(O)O)cc2)ccc1OCC1CCCCC1 [Example 45, [4-(3-Carbamoyl-4-cyclohexylmethoxy-benzylcarbamoyl)-phenyl]-difluoro-methyl-phosphonic acid]
IC50 [1, 4]: ~50 µM

Cc1cc(C(=O)NCc2ccc(OCC3CCCCC3)c(C(N)=O)c2)cc(C)c1OP(=O)(O)O [Example 46, Phosphoric acid mono-[4-(3-carbamoyl-4-cyclohexyl-methoxy-benzylcarbamoyl)-2,6-dimethyl-phenyl] ester]
IC50 ([1]; IC50, SRC SH2 Binding): 12.5 µM

NC(=O)c1cc(CNC(=O)c2ccc(OP(=O)(O)O)c(Cl)c2)ccc1OCC1CCCCC1 [Example 47, Phosphoric acid mono-[4-(3-carbamoyl-4-cyclohexyl-methoxy-benzylcarbamoyl)-2-chloro-phenyl] ester]
IC50 ([1]; IC50, SRC SH2 Binding): ~20 µM

CNC(=O)c1cc(CNC(=O)c2ccc(OP(=O)(O)O)cc2)ccc1OCC1CCCCC1 [Example 48, Phosphoric acid mono-[4-(4-cyclohexylmethoxy-3-methylcarbamoyl-benzylcarbamoyl)-phenyl] ester]
IC50 ([1]; IC50, SRC SH2 Binding): ~30 µM

CC(=O)N[C@@H](Cc1ccc(OP(=O)(O)O)cc1)C(=O)NCc1ccc(OCC2CCCCC2)c(C(N)=O)c1 [Example 49, (S)-Phosphoric acid mono-{4-[2-acetylamino-2-(3-carbamoyl-4-cyclohexylmethoxy-benzylcarbamoyl)-ethyl]-phenyl} ester]
IC50 ([1]; IC50, SRC SH2 Binding): 8.5 µM

CC(=O)N[C@@H](Cc1ccc(OP(=O)(O)O)cc1)C(=O)NCc1ccc(OCc2cc(C)cc(C)c2)c(C(N)=O)c1 [Example 50, (S)-Phosphoric acid mono-(4-{2-acetylamino-2-[3-carbamoyl-4-(3,5-dimethyl-benzyloxy)-benzylcarbamoyl]-ethyl}-phenyl) ester]
IC50 ([1]; IC50, SRC SH2 Binding): 2.5 µM

CNC(=O)N[C@@H](Cc1ccc(OP(=O)(O)O)cc1)C(=O)NCc1ccc(OCC2CCCCC2)c(C(N)=O)c1 [Example 52]
IC50 ([1]; IC50, SRC SH2 Binding): 6.2 µM

CC(=O)N[C@@H](Cc1ccc(C(F)(F)P(=O)(O)O)cc1)C(=O)NCc1ccc(OCC2CCCCC2)c(C(N)=O)c1 [Example 53, (S)-{4-[2-Acetylamino-2-(3-carbamoyl-4-cyclohexyl-methoxy-benzylcarbamoyl)-ethyl]-phenyl}-difluoro-methyl-phosphonic acid]
IC50 ([1]; IC50, SRC SH2 Binding): 12.1 µM

CC(=O)N[C@@H](Cc1ccc(OP(=O)(O)O)cc1)C(=O)N[C@@H](CCC(=O)O)C(=O)NCCC12CC3CC(CC(C3)C1)C2 [Example 56, [S-(R*,R*)]-4-[2-Acetylamino-3-(4-phosphonooxy-phenyl)-propionylamino]-4-(2-adamantan-1-yl-ethylcarbamoyl)-butyric acid]
IC50 ([1]; IC50, SRC SH2 Binding): 3.8 µM

CC(=O)N[C@@H](Cc1ccc(OP(=O)(O)O)cc1)C(=O)NCc1ccc(OCC2CCCCC2)c(C(=O)NN)c1 [Example 71, (S)-Phosphoric acid mono-{4-[2-acetylamino-2-(4-cyclohexylmethoxy-3-hydrazinocarbonyl-benzylcarbamoyl)-ethyl]-phenyl} ester]
IC50 ([1]; IC50, SRC SH2 Binding): 18 µM
